Data: the NIST ThermoML archive (doi:10.1016/j.jct.2016.03.030)

Legend:
[1] = for viscosity: 100 kPa, Liquid, Falling or rolling sphere viscometry
[2] = Molar enthalpy of transition or fusion; conditions: DSC
[3] = xn = mol fraction of the nth substance listed; conditions: 100 kPa, Liquid, x2 = 0; for viscosity: Falling or rolling sphere viscometry; for mass density: Vibrating tube method

CCCCC[N+]1(C)CCCCC1.[Br-] [1-methyl-1-pentylpiperidinium bromide]
Conditions | Molar enthalpy of transition or fusion [kcal/mol] | Normal melting temperature [°C]
[1], Crystal 1, DTA | – | 173.7
[2], Crystal 1 | 2.11 | –

CCCC[N+]1(C)CCOCC1.[Br-] [4-butyl-4-methylmorpholinium bromide]
Conditions | Molar enthalpy of transition or fusion [kcal/mol] | Normal melting temperature [°C]
[1], Crystal 1, DTA | – | 211.32
[2], Crystal 1 | 3.37 | –

CCCCC[N+]1(C)CCOCC1.[Br-] [4-methyl-4-pentylmorpholinium bromide]
Conditions | Molar enthalpy of transition or fusion [kcal/mol] | Normal melting temperature [°C]
[1], Crystal 1, DTA | – | 194
[2], Crystal 1 | 1.94 | –

CCC[N+]1(C)CCOCC1.[Br-] [4-methyl-4-propylmorpholinium bromide]
Conditions | Molar enthalpy of transition or fusion, Crystal 1 [kcal/mol] | Molar enthalpy of transition or fusion, Crystal 2 [kcal/mol] | Normal melting temperature, Crystal 1, DTA [°C] | Triple point temperature, Crystal 2, DSC [K]
[1] | – | – | 180.79 | 341.13
[2] | 2.72 | 0.55 | – | –

O [water]
[1]
Conditions | viscosity [mPa·s]
298.15 K | 0.912
303.15 K | 0.819
308.15 K | 0.739
313.15 K | 0.671
318.15 K | 0.611
323.15 K | 0.559
328.15 K | 0.514
333.15 K | 0.474
338.15 K | 0.439
343.15 K | 0.408

Conditions | Normal melting temperature [°C]
[1], Crystal, visual observation | 0.00

O [water] + CCCCC[N+]1(C)CCCCC1.[Br-]
[3]
Conditions | mass density [kg/m3] | viscosity [mPa·s]
298.15 K | – | 0.912
303.15 K | – | 0.819
308.15 K | – | 0.739
313.15 K | – | 0.671
318.15 K | 990.1 | 0.611
323.15 K | 987.9 | 0.559
328.15 K | 985.6 | 0.514
333.15 K | 983.2 | 0.474
338.15 K | 980.3 | 0.439
343.15 K | 978.1 | 0.408

O [water] + CCCCC[N+]1(C)CCOCC1.[Br-]
[3]
Conditions | mass density [kg/m3] | viscosity [mPa·s]
298.15 K | – | 0.912
303.15 K | – | 0.819
308.15 K | – | 0.739
313.15 K | – | 0.671
318.15 K | 990.1 | 0.611
323.15 K | 987.9 | 0.559
328.15 K | 985.6 | 0.514
333.15 K | 983.2 | 0.474
338.15 K | 980.3 | 0.439
343.15 K | 978.1 | 0.408

O [water] + CCCC[N+]1(C)CCOCC1.[Br-]
[3]
Conditions | mass density [kg/m3] | viscosity [mPa·s]
298.15 K | – | 0.912
303.15 K | – | 0.819
308.15 K | – | 0.739
313.15 K | – | 0.671
318.15 K | 990.1 | 0.611
323.15 K | 987.9 | 0.559
328.15 K | 985.6 | 0.514
333.15 K | 983.2 | 0.474
338.15 K | 980.3 | 0.439
343.15 K | 978.1 | 0.408

O [water] + CCC[N+]1(C)CCOCC1.[Br-]
[3]
Conditions | mass density [kg/m3] | viscosity [mPa·s]
298.15 K | – | 0.912
303.15 K | – | 0.819
308.15 K | – | 0.739
313.15 K | – | 0.671
318.15 K | 990.1 | 0.611
323.15 K | 987.9 | 0.559
328.15 K | 985.6 | 0.514
333.15 K | 983.2 | 0.474
338.15 K | 980.3 | 0.439
343.15 K | 978.1 | 0.408
